Laboratory results reported in patent publication US9156845B2, “4-(substituted amino)-7H-pyrrolo[2,3-d] pyrimidines as LRRK2 inhibitors” (Pfizer Inc., priority 2012, dated 2015).
Read-outs that look alike come from different tables or passages of the source.

Columns and labels:
[1] = tested on: JNK1, JNK2, JNK3; assay: ActivX kinase probe assay (human PBMC); format: binding
[2] = target: MAP3K5 (Homo sapiens (Human), UniProt Q99683); assay: ActivX kinase probe assay (human PBMC); format: binding; conditions: read-out: percent inhibition
[3] = target: STLK5 (Homo sapiens (Human), UniProt Q7RTN6); assay: ActivX kinase probe assay (human PBMC); format: binding; conditions: read-out: percent inhibition
[4] = tested on: MAP2K1, MAP2K2; assay: ActivX kinase probe assay (human PBMC); format: binding
[5] = target: EphA1 (Homo sapiens (Human), UniProt P21709); assay: ActivX kinase probe assay (human PBMC); format: binding; conditions: read-out: percent inhibition
[6] = target: PI4KB (Homo sapiens (Human), UniProt Q9UBF8); assay: ActivX kinase probe assay (human PBMC); format: binding; conditions: read-out: percent inhibition
[7] = target: LOK (Homo sapiens (Human), UniProt O94804); assay: ActivX kinase probe assay (human PBMC); format: binding; conditions: read-out: percent inhibition
[8] = target: GST-tagged truncated LRRK2 (Homo sapiens (Human), UniProt Q5S007); assay: LRRK2 Lantha Screen kinase assay; format: biochemical; conditions: geometric mean of 2-5 determinations unless otherwise indicated (a: >=6 determinations; b: single determination); read-out: LRRK2 WT IC50
[9] = target: DNAPK (Homo sapiens (Human), UniProt P78527); assay: ActivX kinase probe assay (human PBMC); format: binding; conditions: read-out: percent inhibition
[10] = target: CaMK2g (Homo sapiens (Human), UniProt Q13555); assay: ActivX kinase probe assay (human PBMC); format: binding; conditions: read-out: percent inhibition
[11] = target: SMG1 (Homo sapiens (Human), UniProt Q96Q15); assay: ActivX kinase probe assay (human PBMC); format: binding; conditions: read-out: percent inhibition
Sequence of SMG1 (Q96Q15 whole entry): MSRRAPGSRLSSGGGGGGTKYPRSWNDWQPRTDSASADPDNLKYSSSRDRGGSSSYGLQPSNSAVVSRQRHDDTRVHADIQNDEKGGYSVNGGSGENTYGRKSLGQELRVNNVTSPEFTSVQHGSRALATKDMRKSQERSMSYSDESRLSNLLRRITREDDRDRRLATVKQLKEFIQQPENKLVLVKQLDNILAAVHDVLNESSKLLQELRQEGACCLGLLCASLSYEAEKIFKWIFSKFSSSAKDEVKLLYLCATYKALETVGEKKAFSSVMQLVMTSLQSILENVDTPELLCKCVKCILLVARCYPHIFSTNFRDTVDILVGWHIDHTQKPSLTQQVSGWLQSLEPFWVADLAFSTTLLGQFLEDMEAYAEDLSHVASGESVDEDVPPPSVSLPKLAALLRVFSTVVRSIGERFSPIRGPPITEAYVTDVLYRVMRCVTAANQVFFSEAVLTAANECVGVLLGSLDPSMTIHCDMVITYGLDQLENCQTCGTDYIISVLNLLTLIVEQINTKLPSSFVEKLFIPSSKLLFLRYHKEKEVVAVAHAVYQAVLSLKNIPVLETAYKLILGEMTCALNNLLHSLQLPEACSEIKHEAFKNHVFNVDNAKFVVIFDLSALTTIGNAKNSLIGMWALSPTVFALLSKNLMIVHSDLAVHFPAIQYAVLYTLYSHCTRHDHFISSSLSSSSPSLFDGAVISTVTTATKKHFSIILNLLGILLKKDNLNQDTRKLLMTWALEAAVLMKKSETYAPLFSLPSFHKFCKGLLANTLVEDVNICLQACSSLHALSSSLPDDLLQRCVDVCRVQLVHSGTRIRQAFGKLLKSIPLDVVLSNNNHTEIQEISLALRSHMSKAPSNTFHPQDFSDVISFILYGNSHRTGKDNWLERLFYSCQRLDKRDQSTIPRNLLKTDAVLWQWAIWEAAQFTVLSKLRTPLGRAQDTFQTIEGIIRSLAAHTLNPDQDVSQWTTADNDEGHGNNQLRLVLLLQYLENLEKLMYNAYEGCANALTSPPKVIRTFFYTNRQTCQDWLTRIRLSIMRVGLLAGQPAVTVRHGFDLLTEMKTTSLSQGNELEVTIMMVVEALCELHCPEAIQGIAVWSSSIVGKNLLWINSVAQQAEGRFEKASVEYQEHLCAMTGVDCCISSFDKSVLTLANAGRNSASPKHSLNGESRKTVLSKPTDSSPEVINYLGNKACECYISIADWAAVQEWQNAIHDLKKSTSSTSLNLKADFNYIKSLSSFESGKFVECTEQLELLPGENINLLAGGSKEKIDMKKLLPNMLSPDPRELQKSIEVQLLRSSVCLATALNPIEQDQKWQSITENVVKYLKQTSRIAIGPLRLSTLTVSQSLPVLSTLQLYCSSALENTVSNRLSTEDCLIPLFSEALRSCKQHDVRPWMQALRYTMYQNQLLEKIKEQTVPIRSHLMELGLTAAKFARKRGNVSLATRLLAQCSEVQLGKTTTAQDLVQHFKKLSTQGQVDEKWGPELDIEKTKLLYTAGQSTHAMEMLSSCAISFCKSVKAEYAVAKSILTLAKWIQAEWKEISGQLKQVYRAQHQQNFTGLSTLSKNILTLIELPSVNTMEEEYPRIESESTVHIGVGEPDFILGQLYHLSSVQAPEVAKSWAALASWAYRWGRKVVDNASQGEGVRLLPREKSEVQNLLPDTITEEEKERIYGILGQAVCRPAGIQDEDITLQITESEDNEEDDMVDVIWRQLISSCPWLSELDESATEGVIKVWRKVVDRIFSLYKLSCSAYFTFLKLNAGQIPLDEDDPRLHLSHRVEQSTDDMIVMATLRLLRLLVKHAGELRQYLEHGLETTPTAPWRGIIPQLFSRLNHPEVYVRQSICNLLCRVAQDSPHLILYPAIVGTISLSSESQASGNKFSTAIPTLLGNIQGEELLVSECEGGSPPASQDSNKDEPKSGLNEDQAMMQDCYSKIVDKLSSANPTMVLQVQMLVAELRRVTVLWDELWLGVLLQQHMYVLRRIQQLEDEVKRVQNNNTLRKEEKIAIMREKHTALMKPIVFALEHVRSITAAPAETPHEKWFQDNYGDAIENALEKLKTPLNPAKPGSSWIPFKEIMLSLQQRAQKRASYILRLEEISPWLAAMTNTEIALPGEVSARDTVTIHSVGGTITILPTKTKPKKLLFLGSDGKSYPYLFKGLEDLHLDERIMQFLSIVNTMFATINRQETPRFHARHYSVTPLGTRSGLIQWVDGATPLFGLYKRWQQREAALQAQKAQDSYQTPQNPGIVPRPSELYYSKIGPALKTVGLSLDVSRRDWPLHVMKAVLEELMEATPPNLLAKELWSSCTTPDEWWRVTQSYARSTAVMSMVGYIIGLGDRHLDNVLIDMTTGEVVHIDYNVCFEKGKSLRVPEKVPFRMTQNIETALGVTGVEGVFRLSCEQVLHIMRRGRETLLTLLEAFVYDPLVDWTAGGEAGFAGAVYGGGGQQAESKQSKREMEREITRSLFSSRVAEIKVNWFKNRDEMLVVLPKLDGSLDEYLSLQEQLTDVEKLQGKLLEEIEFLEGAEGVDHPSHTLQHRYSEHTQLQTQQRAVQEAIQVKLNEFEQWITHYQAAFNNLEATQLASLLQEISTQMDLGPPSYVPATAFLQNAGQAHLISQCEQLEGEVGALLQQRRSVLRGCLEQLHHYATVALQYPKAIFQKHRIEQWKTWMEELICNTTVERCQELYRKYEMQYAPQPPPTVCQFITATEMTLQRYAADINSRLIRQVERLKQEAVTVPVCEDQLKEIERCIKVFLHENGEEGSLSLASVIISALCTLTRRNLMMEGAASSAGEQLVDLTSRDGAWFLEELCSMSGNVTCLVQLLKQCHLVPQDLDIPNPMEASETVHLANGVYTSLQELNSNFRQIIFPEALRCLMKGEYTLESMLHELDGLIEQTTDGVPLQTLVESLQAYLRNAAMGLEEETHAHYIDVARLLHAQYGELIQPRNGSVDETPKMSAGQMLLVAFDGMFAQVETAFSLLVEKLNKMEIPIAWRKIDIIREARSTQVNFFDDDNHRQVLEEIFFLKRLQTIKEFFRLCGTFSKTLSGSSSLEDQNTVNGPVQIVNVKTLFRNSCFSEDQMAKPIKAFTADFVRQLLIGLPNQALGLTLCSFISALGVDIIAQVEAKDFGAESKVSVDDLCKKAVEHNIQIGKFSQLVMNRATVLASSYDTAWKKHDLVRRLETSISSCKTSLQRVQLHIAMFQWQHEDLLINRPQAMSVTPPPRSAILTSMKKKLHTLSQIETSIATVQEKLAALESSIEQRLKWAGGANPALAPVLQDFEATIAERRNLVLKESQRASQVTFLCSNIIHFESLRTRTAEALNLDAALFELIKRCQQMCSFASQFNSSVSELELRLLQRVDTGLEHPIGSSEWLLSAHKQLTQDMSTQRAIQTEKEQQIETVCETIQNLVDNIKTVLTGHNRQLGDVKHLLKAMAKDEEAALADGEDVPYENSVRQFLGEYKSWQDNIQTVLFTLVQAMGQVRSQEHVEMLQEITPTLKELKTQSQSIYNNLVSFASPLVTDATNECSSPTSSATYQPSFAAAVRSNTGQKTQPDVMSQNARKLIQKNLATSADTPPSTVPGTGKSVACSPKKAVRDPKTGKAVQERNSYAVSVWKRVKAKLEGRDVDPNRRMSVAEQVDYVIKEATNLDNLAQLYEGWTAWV

[12] = target: NEK1 (Homo sapiens (Human), UniProt Q96PY6); assay: ActivX kinase probe assay (human PBMC); format: binding; conditions: read-out: percent inhibition
[13] = target: LATS1 (Homo sapiens (Human), UniProt O95835); assay: ActivX kinase probe assay (human PBMC); format: binding; conditions: read-out: percent inhibition
[14] = target: ZC2/TNIK (Homo sapiens (Human), UniProt Q9UKE5); assay: ActivX kinase probe assay (human PBMC); format: binding; conditions: read-out: percent inhibition
[15] = target: MAP2K3 (Homo sapiens (Human), UniProt P46734); assay: ActivX kinase probe assay (human PBMC); format: binding; conditions: read-out: percent inhibition
[16] = target: TLK2 (Homo sapiens (Human), UniProt Q86UE8); assay: ActivX kinase probe assay (human PBMC); format: binding; conditions: read-out: percent inhibition
[17] = tested on: CDK11, CDK8; assay: ActivX kinase probe assay (human PBMC); format: binding
[18] = target: LATS2 (Homo sapiens (Human), UniProt Q9NRM7); assay: ActivX kinase probe assay (human PBMC); format: binding; conditions: read-out: percent inhibition
[19] = target: MAP3K1 (Homo sapiens (Human), UniProt Q13233); assay: ActivX kinase probe assay (human PBMC); format: binding; conditions: read-out: percent inhibition
[20] = target: BTK (Homo sapiens (Human), UniProt Q06187); assay: ActivX kinase probe assay (human PBMC); format: binding; conditions: read-out: percent inhibition
[21] = target: JAK3 domain2 (Homo sapiens (Human), UniProt P52333); assay: ActivX kinase probe assay (human PBMC); format: binding; conditions: read-out: percent inhibition
[22] = target: PYK2 (Homo sapiens (Human), UniProt Q14289); assay: ActivX kinase probe assay (human PBMC); format: binding; conditions: read-out: percent inhibition
[23] = target: GCK (Homo sapiens (Human), UniProt Q12851); assay: ActivX kinase probe assay (human PBMC); format: binding; conditions: read-out: percent inhibition
[24] = target: NEK7 (Homo sapiens (Human), UniProt Q8TDX7); assay: ActivX kinase probe assay (human PBMC); format: binding; conditions: read-out: percent inhibition
[25] = target: PIK3CD (Homo sapiens (Human), UniProt O00329); assay: ActivX kinase probe assay (human PBMC); format: binding; conditions: read-out: percent inhibition
[26] = target: MARK2 (Homo sapiens (Human), UniProt Q7KZI7); assay: ActivX kinase probe assay (human PBMC); format: binding; conditions: read-out: percent inhibition
[27] = target: IRAK3 (Homo sapiens (Human), UniProt Q9Y616); assay: ActivX kinase probe assay (human PBMC); format: binding; conditions: read-out: percent inhibition
Sequence of IRAK3 (Q9Y616 whole entry): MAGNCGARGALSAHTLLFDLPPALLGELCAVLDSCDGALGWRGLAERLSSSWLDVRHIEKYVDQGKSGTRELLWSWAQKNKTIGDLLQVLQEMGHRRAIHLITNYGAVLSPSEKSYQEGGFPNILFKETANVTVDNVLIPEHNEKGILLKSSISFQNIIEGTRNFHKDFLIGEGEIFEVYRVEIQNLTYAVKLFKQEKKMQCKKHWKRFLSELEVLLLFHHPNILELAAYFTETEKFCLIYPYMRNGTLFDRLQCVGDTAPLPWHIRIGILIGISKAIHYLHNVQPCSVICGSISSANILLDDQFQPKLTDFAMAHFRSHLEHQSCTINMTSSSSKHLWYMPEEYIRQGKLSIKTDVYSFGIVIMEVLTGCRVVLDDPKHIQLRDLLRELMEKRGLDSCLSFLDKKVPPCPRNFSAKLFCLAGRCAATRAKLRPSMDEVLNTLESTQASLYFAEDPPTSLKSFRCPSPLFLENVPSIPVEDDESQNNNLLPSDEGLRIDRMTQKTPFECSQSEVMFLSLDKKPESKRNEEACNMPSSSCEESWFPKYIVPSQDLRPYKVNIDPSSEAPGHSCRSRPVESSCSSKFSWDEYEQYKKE

[28] = target: eEF2K (Homo sapiens (Human), UniProt O00418); assay: ActivX kinase probe assay (human PBMC); format: binding; conditions: read-out: percent inhibition
[29] = target: p38a (Homo sapiens (Human), UniProt Q16539); assay: ActivX kinase probe assay (human PBMC); format: binding; conditions: read-out: percent inhibition
[30] = target: PIK3C3 (Homo sapiens (Human), UniProt Q8NEB9); assay: ActivX kinase probe assay (human PBMC); format: binding; conditions: read-out: percent inhibition
[31] = target: ZAK (Homo sapiens (Human), UniProt Q9NYL2); assay: ActivX kinase probe assay (human PBMC); format: binding; conditions: read-out: percent inhibition
[32] = target: IKKe (Homo sapiens (Human), UniProt Q14164); assay: ActivX kinase probe assay (human PBMC); format: binding; conditions: read-out: percent inhibition
[33] = target: CDK5 (Homo sapiens (Human), UniProt Q00535); assay: ActivX kinase probe assay (human PBMC); format: binding; conditions: read-out: percent inhibition
[34] = target: MAP3K4 (Homo sapiens (Human), UniProt Q9Y6R4); assay: ActivX kinase probe assay (human PBMC); format: binding; conditions: read-out: percent inhibition
[35] = target: TBK1 (Homo sapiens (Human), UniProt Q9UHD2); assay: ActivX kinase probe assay (human PBMC); format: binding; conditions: read-out: percent inhibition
Sequence of TBK1 (Q9UHD2 whole entry): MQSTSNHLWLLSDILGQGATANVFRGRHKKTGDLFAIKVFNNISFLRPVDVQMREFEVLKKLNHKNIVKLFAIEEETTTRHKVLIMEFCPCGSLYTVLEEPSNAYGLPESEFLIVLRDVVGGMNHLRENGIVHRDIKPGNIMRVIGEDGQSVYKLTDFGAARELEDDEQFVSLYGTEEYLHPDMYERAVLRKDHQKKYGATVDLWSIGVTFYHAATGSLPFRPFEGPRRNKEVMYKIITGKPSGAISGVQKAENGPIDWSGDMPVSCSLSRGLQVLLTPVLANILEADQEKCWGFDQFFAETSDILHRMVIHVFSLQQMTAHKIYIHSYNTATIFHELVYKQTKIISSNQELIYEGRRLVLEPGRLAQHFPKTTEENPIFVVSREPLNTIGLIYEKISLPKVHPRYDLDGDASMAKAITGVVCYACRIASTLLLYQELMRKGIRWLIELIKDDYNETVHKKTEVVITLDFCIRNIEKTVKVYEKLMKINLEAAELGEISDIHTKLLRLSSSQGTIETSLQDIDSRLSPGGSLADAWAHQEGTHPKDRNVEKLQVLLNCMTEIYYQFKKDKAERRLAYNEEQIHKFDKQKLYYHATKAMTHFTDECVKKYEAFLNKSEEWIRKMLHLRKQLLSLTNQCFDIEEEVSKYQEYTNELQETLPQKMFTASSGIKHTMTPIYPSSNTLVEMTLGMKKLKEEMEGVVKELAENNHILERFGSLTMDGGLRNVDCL

## Cn1cc(-c2c[nH]c3ncnc(N4CCOCC4)c23)cc1C#N [Example 217, 1-methyl-4-[4-(morpholin-4-yl)-7H-pyrrolo[2,3-d]pyrimidin-5-yl]-1H-pyrrole-2-carbonitrile]
[1]; 0.1 μM
  percent inhibition: −18.2%
[1]; 1 μM
  percent inhibition: −6.4%
[2]; MAP3K5, 0.1 μM
  inhibition at 0.1 µM: 7%
[2]; MAP3K5, 1 μM
  inhibition at 1 µM: 44.5%
[3]; STLK5, 0.1 μM
  inhibition at 0.1 µM: -6.9%
[3]; STLK5, 1 μM
  inhibition at 1 µM: -11.5%
[4]; 0.1 μM
  percent inhibition: 10.9%
[4]; 1 μM
  percent inhibition: −2.6%
[5]; EphA1, 0.1 μM
  inhibition at 0.1 µM: 11.1%
[5]; EphA1, 1 μM
  inhibition at 1 µM: -16.1%
[6]; PI4KB, 0.1 μM
  inhibition at 0.1 µM: 9.9%
[6]; PI4KB, 1 μM
  inhibition at 1 µM: -0.5%
[7]; LOK, 0.1 μM
  inhibition at 0.1 µM: -6.4%
[7]; LOK, 1 μM
  inhibition at 1 µM: 56.1%
[8]
  IC50: 6.37 nM
[9]; DNAPK, 0.1 μM
  inhibition at 0.1 µM: 31%
[9]; DNAPK, 1 μM
  inhibition at 1 µM: 31.5%
[10]; CaMK2g, 0.1 μM
  inhibition at 0.1 µM: 4.3%
[10]; CaMK2g, 1 μM
  inhibition at 1 µM: 18.7%
[11]; SMG1, 0.1 μM
  inhibition at 0.1 µM: 1.5%
[11]; SMG1, 1 μM
  inhibition at 1 µM: -6.1%
[12]; NEK1, 0.1 μM
  inhibition at 0.1 µM: 4.8%
[12]; NEK1, 1 μM
  inhibition at 1 µM: -5.1%
[13]; LATS1, 0.1 μM
  inhibition at 0.1 µM: -3.9%
[13]; LATS1, 1 μM
  inhibition at 1 µM: 1.9%
[14]; ZC2/TNIK, 0.1 μM
  inhibition at 0.1 µM: -10.7%
[14]; ZC2/TNIK, 1 μM
  inhibition at 1 µM: 3.9%
[15]; MAP2K3, 0.1 μM
  inhibition at 0.1 µM: 2.5%
[15]; MAP2K3, 1 μM
  inhibition at 1 µM: 3.3%
[16]; TLK2, 0.1 μM
  inhibition at 0.1 µM: 11.1%
[16]; TLK2, 1 μM
  inhibition at 1 µM: 16%
[17]; 0.1 μM
  percent inhibition: −5.6%
[17]; 1 μM
  percent inhibition: −5.2%
[18]; LATS2, 0.1 μM
  inhibition at 0.1 µM: 5.8%
[18]; LATS2, 1 μM
  inhibition at 1 µM: -23.7%
[19]; MAP3K1, 0.1 μM
  inhibition at 0.1 µM: -17.3%
[19]; MAP3K1, 1 μM
  inhibition at 1 µM: 14.8%
[20]; BTK, 0.1 μM
  inhibition at 0.1 µM: 24.3%
[20]; BTK, 1 μM
  inhibition at 1 µM: 8.5%
[21]; JAK3 domain2, 0.1 μM
  inhibition at 0.1 µM: -7.8%
[21]; JAK3 domain2, 1 μM
  inhibition at 1 µM: 4.9%
[22]; PYK2, 0.1 μM
  inhibition at 0.1 µM: -1%
[22]; PYK2, 1 μM
  inhibition at 1 µM: 8.4%
[23]; GCK, 0.1 μM
  inhibition at 0.1 µM: -5.2%
[23]; GCK, 1 μM
  inhibition at 1 µM: 27.2%
[24]; NEK7, 0.1 μM
  inhibition at 0.1 µM: -9%
[24]; NEK7, 1 μM
  inhibition at 1 µM: -2.3%
[25]; PIK3CD, 0.1 μM
  inhibition at 0.1 µM: -0.4%
[25]; PIK3CD, 1 μM
  inhibition at 1 µM: 10%
[26]; MARK2, 0.1 μM
  inhibition at 0.1 µM: -5%
[26]; MARK2, 1 μM
  inhibition at 1 µM: 13.1%
[27]; IRAK3, 0.1 μM
  inhibition at 0.1 µM: 16%
[27]; IRAK3, 1 μM
  inhibition at 1 µM: 72.4%
[28]; eEF2K, 0.1 μM
  inhibition at 0.1 µM: -12.1%
[28]; eEF2K, 1 μM
  inhibition at 1 µM: 2.2%
[29]; p38a, 0.1 μM
  inhibition at 0.1 µM: -1.1%
[29]; p38a, 1 μM
  inhibition at 1 µM: -4.6%
[30]; PIK3C3, 0.1 μM
  inhibition at 0.1 µM: 19.9%
[30]; PIK3C3, 1 μM
  inhibition at 1 µM: 10.2%
[31]; ZAK, 0.1 μM
  inhibition at 0.1 µM: -2.9%
[31]; ZAK, 1 μM
  inhibition at 1 µM: -1.2%
[32]; IKKe, 0.1 μM
  inhibition at 0.1 µM: -3%
[32]; IKKe, 1 μM
  inhibition at 1 µM: 20.4%
[33]; CDK5, 0.1 μM
  inhibition at 0.1 µM: 0.5%
[33]; CDK5, 1 μM
  inhibition at 1 µM: 7.9%
[34]; MAP3K4, 0.1 μM
  inhibition at 0.1 µM: -35.5%
[34]; MAP3K4, 1 μM
  inhibition at 1 µM: -27.4%
[35]; TBK1, 0.1 μM
  inhibition at 0.1 µM: 1.9%
[35]; TBK1, 1 μM
  inhibition at 1 µM: 0.1%

## N#Cc1cccc(-c2c[nH]c3ncnc(N4CCOCC4)c23)c1 [Example 4, 3-[4-(Morpholin-4-yl)-7H-pyrrolo[2,3-d]pyrimidin-5-yl]benzonitrile]
[1]; 0.1 μM
  percent inhibition: −5.3%
[1]; 1 μM
  percent inhibition: 5.4%
[2]
  inhibition at 0.1 µM: 3.3%
  inhibition at 1 µM: 21.3%
[3]
  inhibition at 0.1 µM: -15.4%
  inhibition at 1 µM: 1.2%
[4]; 0.1 μM
  percent inhibition: −7.1%
[4]; 1 μM
  percent inhibition: 6.4%
[5]
  inhibition at 0.1 µM: -17%
  inhibition at 1 µM: -2.5%
[6]
  inhibition at 0.1 µM: -7.4%
  inhibition at 1 µM: 4.9%
[7]
  inhibition at 0.1 µM: 11.9%
  inhibition at 1 µM: 53.6%
[8]
  IC50: 3 nM
[9]
  inhibition at 0.1 µM: -19.3%
  inhibition at 1 µM: 14.7%
[10]
  inhibition at 0.1 µM: -13.6%
  inhibition at 1 µM: 2.9%
[11]
  inhibition at 0.1 µM: -2.5%
  inhibition at 1 µM: 13%
[12]
  inhibition at 0.1 µM: -8.9%
  inhibition at 1 µM: -1.9%
[13]
  inhibition at 0.1 µM: -4.8%
  inhibition at 1 µM: 5.4%
[14]
  inhibition at 0.1 µM: -7.9%
  inhibition at 1 µM: 29.2%
[15]
  inhibition at 0.1 µM: -12.5%
  inhibition at 1 µM: 6.2%
[16]
  inhibition at 0.1 µM: -8.4%
  inhibition at 1 µM: -9.4%
[17]; 0.1 μM
  percent inhibition: 5%
[17]; 1 μM
  percent inhibition: 36%
[18]
  inhibition at 0.1 µM: -7.2%
  inhibition at 1 µM: 16.2%
[19]
  inhibition at 0.1 µM: 6.4%
  inhibition at 1 µM: 44.5%
[20]
  inhibition at 0.1 µM: -2.2%
  inhibition at 1 µM: 9.5%
[21]
  inhibition at 0.1 µM: 6.9%
  inhibition at 1 µM: 6.8%
[22]
  inhibition at 0.1 µM: -3.9%
  inhibition at 1 µM: 2.5%
[23]
  inhibition at 0.1 µM: 3.6%
  inhibition at 1 µM: 31.2%
[24]
  inhibition at 0.1 µM: 2.2%
  inhibition at 1 µM: 7.3%
[25]
  inhibition at 0.1 µM: -14%
  inhibition at 1 µM: -12.4%
[26]
  inhibition at 0.1 µM: -4.7%
  inhibition at 1 µM: 27.3%
[27]
  inhibition at 0.1 µM: 29.8%
  inhibition at 1 µM: 33.7%
[28]
  inhibition at 0.1 µM: -27.1%
  inhibition at 1 µM: 2.8%
[29]
  inhibition at 0.1 µM: -14.6%
  inhibition at 1 µM: -1.7%
[30]
  inhibition at 0.1 µM: -2.4%
  inhibition at 1 µM: 13.6%
[31]
  inhibition at 0.1 µM: -20.5%
  inhibition at 1 µM: -42.2%
[32]
  inhibition at 0.1 µM: -7%
  inhibition at 1 µM: 7.4%
[33]
  inhibition at 0.1 µM: -12.2%
  inhibition at 1 µM: 0.1%
[34]
  inhibition at 0.1 µM: 9.7%
  inhibition at 1 µM: 29.8%
[35]
  inhibition at 0.1 µM: 7.3%
  inhibition at 1 µM: 16.4%
